The experiment concerns F21T (DNA, G4) GGGTTAGGGTTAGGGTTAGGG
The experiment in a line: FRET melting. Conditions: 0.1 M KCl, 10 mM sodium cacodylate pH 7.2, 0.25 µM DNA.

For the compound `COc1ccc(Cc2nccc3cc(OC)c(OC)cc23)cc1OC`, the ΔTm (120 µM compound, authors: almost no interaction) is ~ 5 °C.
In the case of `COc1ccc2cc3[n+](cc2c1OC)CCc1cc2c(cc1-3)OCO2`, the ΔTm (50 µM compound) was ~ 15.5 °C.
